Experimental findings from patent US4229573A, “7α-Methoxycephalosporin derivatives” (Asahi Kasei Kogyo Kabushiki Kaisha, priority 1977, dated 1980) are described below.

What all share (test): Minimum inhibitory concentration (MIC) against bacteria
Format in all cases: cell-based

Test [1] deals with Proteus rettgeri, ACR. The text has this:
(§1) In an antimicrobial spectrum, a minimum inhibitory concentration (MIC) against a bacterium is expressed in terms of μg/ml.

Test [2] concerns Proteus morganii 0239.
From the text: as §1

For test [3], the system named is Enterobacter cloacae GN 336. Particulars: GN336.
From the text: as §1

Test [4] relates to Escherichia coli, NIHJ.
From the text: as §1

The subject of test [5] is Staphylococcus aureus, ATCC 6538 P.
From the text: as §1

Test [6] has as its system Staphylococcus aureus, ATCC MS 27.
From the text: as §1

Test [7] relates to Proteus mirabilis.
From the text: as §1

Test [8] deals with Escherichia coli, 0205.
From the text: as §1

Test [9] concerns Klebsiella pheumoniae, ATCC 10031.
From the text: as §1

Test [10] deals with Salmonella enteritidis gaertner.
From the text: as §1

Test [11] relates to Citrobacter freundii GN 346. The following applies: GN346.
From the text: as §1

Setting [12] is: Providencia rettgeri, Proteus rettgeri, ACR, read-out: MIC.
[13] abbreviates: Morganella morganii, Proteus morganii 0239, read-out: MIC.
The mark [14] stands for this setting: Enterobacter cloacae GN 336, read-out: MIC.
The mark [15] stands for this setting: ATCC6538, ATCC 6538 P, read-out: MIC.
[16] abbreviates: ATCCMS27, ATCC MS 27, read-out: MIC.
Where [17] appears, read: ATCC10031, Klebsiella pheumoniae, ATCC 10031, read-out: MIC.
[18] abbreviates: Salmonella enterica, Salmonella enteritidis gaertner, read-out: MIC.
[19] abbreviates: Citrobacter freundii GN 346, read-out: MIC.

The structures appear in SMILES notation. ≈ marks a conversion by molar mass, not a printed value. Read-outs that look alike come from different tables or passages of the source.

`Cn1nnnc1SCC1=C(C(=O)O)N2C(=O)C(NC(=O)C[S+]([O-])c3cccs3)[C@H]2SC1` (stereo partly drawn) [A, 7-(2-Thienylsulfinylacetamido)-3-(1-methyl-1H-tetrazol-5-ylthiomethyl)-3-cephem-4-carboxylic acid]: the MIC (commonly the least concentration at which growth counts as inhibited) in test [1] (setting [12]) was 25 µg/mL (≈ 49.9 µM); in test [2] (setting [13]), above 100 µg/mL; in test [3] (setting [14]), 100 µg/mL (≈ 200 µM); in test [4] (read-out: MIC) it was 0.8 µg/mL (≈ 1.6 µM); in test [5] (setting [15]) it was at most 0.2 µg/mL; in [6] (setting [16]), 0.4 µg/mL (≈ 0.799 µM). For the same molecule, the MIC in test [7] (read-out: MIC) is 0.8 µg/mL (≈ 1.6 µM); in test [8] (read-out: MIC) it was 25 µg/mL (≈ 49.9 µM); in test [9] (setting [17]), at most 0.2 µg/mL; in [10] (setting [18]), at most 0.2 µg/mL; in [11] (setting [19]), above 100 µg/mL.

Turning to `Cc1nnc(SCC2=C(C(=O)O)N3C(=O)[C@@H](NC(=O)Cn4cnnn4)[C@H]3SC2)s1` [Cefazolin, 7-(1H-Tetrazol-1-ylacetamido)-3-(5-methyl-1,3,4-thiadiazol-2-ylthiomethyl)-3-cephem-4-carboxylic acid], the MIC is above 100 µg/mL in test [1] (setting [12]); above 100 µg/mL in [2] (setting [13]); above 100 µg/mL in [3] (setting [14]); 1.6 µg/mL (≈ 3.52 µM) in test [4] (read-out: MIC); at most 0.2 µg/mL in test [5] (setting [15]); 0.8 µg/mL (≈ 1.76 µM) in test [6] (setting [16]). Moreover, the MIC is 3.1 µg/mL (≈ 6.82 µM) in test [7] (read-out: MIC); 12.5 µg/mL (≈ 27.5 µM) in test [8] (read-out: MIC); 1.6 µg/mL (≈ 3.52 µM) in [9] (setting [17]); 1.6 µg/mL (≈ 3.52 µM) in test [10] (setting [18]); above 100 µg/mL in test [11] (setting [19]).

Take `CC(=O)OCC1=C(C(=O)O)N2C(=O)[C@@H](NC(=O)Cc3cccs3)[C@H]2SC1` [Cephalothin, 7-(2-Thienylacetamido)-3-acetoxymethyl-3-cephem-4-carboxylic acid]: the MIC in [1] (Providencia rettgeri) is above 100 µg/mL; in [2] (Morganella morganii, 0239), above 100 µg/mL; in test [3] (Enterobacter cloacae) it was above 100 µg/mL; in test [4] (read-out: MIC) it was 6.3 µg/mL (≈ 15.9 µM); in test [5] (ATCC6538) it was at most 0.2 µg/mL; in test [6] (ATCCMS27) it was 0.4 µg/mL (≈ 1.01 µM). Moreover, the MIC is 6.3 µg/mL (≈ 15.9 µM) in test [7]; above 100 µg/mL in [8] (read-out: MIC); 0.8 µg/mL (≈ 2.02 µM) in test [9] (Klebsiella, ATCC10031); 1.6 µg/mL (≈ 4.04 µM) in [10] (Salmonella enterica, ENTERITIDIS); above 100 µg/mL in [11] (Citrobacter freundii).

As to `CO[C@@]1(NC(=O)C[S+]([O-])c2cccs2)C(=O)N2C(C(=O)O)=C(CSc3nnnn3C)CS[C@@H]21` (stereo partly drawn) [Example 21, 7β-(2-Thienylsulfinylacetamido)-7α-methoxy-3-(1-methyl-1H-tetrazol-5-ylthiomethyl)-3-cephem-4-carboxylic acid], the MIC is 6.3 µg/mL (≈ 11.9 µM) in test [1] (Proteus rettgeri, ACR); 12.5 µg/mL (≈ 23.6 µM) in [2] (Proteus morganii 0239); 25 µg/mL (≈ 47.1 µM) in [3] (Enterobacter cloacae); 1.6 µg/mL (≈ 3.02 µM) in test [4]; 0.8 µg/mL (≈ 1.51 µM) in test [5] (ATCC 6538 P); 0.8 µg/mL (≈ 1.51 µM) in test [6] (ATCC MS 27). Also, the MIC is 0.8 µg/mL (≈ 1.51 µM) in test [7]; 3.1 µg/mL (≈ 5.84 µM) in test [8]; at most 0.2 µg/mL in test [9] (Klebsiella pheumoniae, ATCC 10031); at most 0.2 µg/mL in test [10] (Salmonella enteritidis gaertner); 100 µg/mL (≈ 188 µM) in test [11] (Citrobacter freundii).

On to `CO[C@@]1(NC(=O)C[S+]([O-])c2cccs2)C(=O)N2C(C(=O)[O-])=C(CSc3nnnn3C)CS[C@@H]21.[Na+]` (stereo partly drawn) [Example 23, sodium 7β-(2-thienylsulfinylacetamido)-7α-methoxy-3-(1-methyl-1H-tetrazol-5-ylthiomethyl)-3-cephem-4-carboxylate], for which, in test [8] (text of Example 23 (sodium salt)), the MIC amounted to 3.1 µg/mL.
